Where two headings read alike, the source gives them in different places.
Assays:
Kir1.1 (ROMK1) = biological target: T1, Kir1.1 (ROMK1) (Homo sapiens, UniProt P48048); experiment: Electrophysiology Assay (whole cell voltage clamp, IonWorks Quattro)
T1 sequence (P48048 1-391): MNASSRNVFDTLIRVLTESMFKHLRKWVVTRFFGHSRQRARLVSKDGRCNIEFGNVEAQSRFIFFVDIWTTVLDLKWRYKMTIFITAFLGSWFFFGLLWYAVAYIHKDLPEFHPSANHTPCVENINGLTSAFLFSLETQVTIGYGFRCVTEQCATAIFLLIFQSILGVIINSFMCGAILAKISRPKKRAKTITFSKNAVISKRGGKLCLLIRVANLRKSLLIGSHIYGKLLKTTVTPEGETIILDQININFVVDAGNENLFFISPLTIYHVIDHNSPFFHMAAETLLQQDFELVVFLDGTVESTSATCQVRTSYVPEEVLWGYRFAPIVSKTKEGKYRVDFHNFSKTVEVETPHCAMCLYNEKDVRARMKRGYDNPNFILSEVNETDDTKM
Experimental: Chinese hamster ovary cells stably expressing Kir1.1 channels were maintained in T-75 flasks in cell culture media in a humidified 10% CO2 incubator at 37 °C. Prior to an experiment, Kir1.1 expression was induced by overnight incubation with 1 mM sodium butyrate. […] After centrifugation, the cell pellet was resuspended in approximately 4.0 mL of bath solution and placed in the IonWorks instrument. The intracellular solution consisted of (in mM): 80 K gluconate, 40 KCl, 20 KF, 3.2 MgCl2, 3 EGTA, 5 Hepes, pH 7.4. Electrical access to the cytoplasm was achieved by perforation in 0.13 mg/mL amphotericin B for 4 min. […] Voltage protocols and current recordings were performed using the IonWorks HT software/hardware system. Currents were sampled at 1 kHz. No correction for liquid junction potentials was used. The test pulse, consisting of a 100 ms step to 0 mV from a holding potential of -70 mV, followed by a 100 ms voltage ramp from -70 mV to +70 mV, was applied before and after a 6 min compound incubation period. Test compounds were prepared by diluting DMSO stock solutions into the bath solution at 3x the final concentration and placed in the instrument in 96-well polypropylene plates. Current amplitudes were measured using the IonWorks software.

hROMK (hKir1.1) = biological target: T2, hROMK (hKir1.1) (Homo sapiens, UniProt P48048); experiment: Thallium Flux Assay; type: cell-based
T2 construct: expressed in transfected cells
T2 sequence (P48048 1-391): T1 sequence (P48048 1-391)
Method in brief: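 HEK293 cells stably expressing hROMK, loaded with FluxOR dye 90 min at ambient temperature, then compound 30 min with 0.3 mM ouabain in probenecid buffer pH 7.4.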

[1] = HEK293 cells stably expressing hROMK (hKir1.1), FLIPR-Tetra, read-out: Thallium Flux IC50

Cc1c([C@@H]2CN3CCN(C(=O)Cc4ccc(-n5cnnn5)cn4)C[C@H]3CO2)ccc(F)c1C#N [Example 2, 3-((3R,9aS)-8-(2-(5-(1H-tetrazol-1-yl)pyridin-2-yl)acetyl)octahydropyrazino[2,1-c][1,4]oxazin-3-yl)-6-fluoro-2-methylbenzonitrile] was tested, and the IC50 (Kir1.1 (ROMK1)) was 70 nM and the IC50 (hROMK (hKir1.1); [1]) was 120 nM.
Work on Cc1c([C@H]2CN3CCN(C(=O)Cc4ccc(-n5cnnn5)cn4)C[C@H]3CO2)ccc(F)c1C#N [Example 3, 3-((3S,9aS)-8-(2-(5-(1H-tetrazol-1-yl)pyridin-2-yl)acetyl)octahydropyrazino[2,1-c][1,4]oxazin-3-yl)-6-fluoro-2-methylbenzonitrile] yielded an IC50 (Kir1.1 (ROMK1)) of 100 nM and an IC50 (hROMK (hKir1.1); [1]) of 90 nM.
For Cc1c([C@H]2CN3CCN(C(=O)Cc4ccc(-n5cnnn5)nc4)C[C@H]3CO2)ccc(F)c1C#N [Example 4, 6-fluoro-2-methyl-3-[(3S,9aS)-8-{[6-(1H-tetrazol-1-yl)pyridin-3-yl]acetyl}octahydropyrazino[2,1-c][1,4]oxazin-3-yl]benzonitrile], the IC50 (Kir1.1 (ROMK1)) was 40 nM and the IC50 (hROMK (hKir1.1); Thallium Flux IC50) was 70 nM.
Work on Cc1c([C@H]2CN3CCN(C(=O)Cc4cnc(-n5cnnn5)nc4)C[C@H]3CO2)ccc(F)c1C#N [Example 6, 6-fluoro-2-methyl-3[(3S,9aS)-8-{[2-(1H-tetrazol-1-yl)pyrimidin-5-yl]acetyl}octahydropyrazino[2,1-c][1,4]oxazin-3-yl]benzonitrile] yielded an IC50 (Kir1.1 (ROMK1)) of 40 nM and an IC50 (hROMK (hKir1.1); Thallium Flux IC50) of 100 nM.
With Cc1c([C@H]2CN3CCN(C(=O)Cc4ccc(-n5cnnn5)nc4)C[C@@H]3CO2)ccc(F)c1C#N [Example 7, 6-fluoro-2-methyl-3-[(3S,9aR)-8-{[6-(1H-tetrazol-1-yl)pvridin-3-yl]acetyl}octahydropyrazino[2,1-c][1,4]oxazin-3-yl]benzonitrile] the IC50 (Kir1.1 (ROMK1)) was 70 nM.
Molecule Cc1c([C@@H]2CN3CCN(C(=O)Cc4ccc(-n5cnnn5)nc4)C[C@@H]3CO2)ccc(F)c1C#N [Example 8, 6-fluoro-2-methyl-3-[(3R,9aR)-8-{[6-(1H-tetrazol-1-yl)pyridin-3-yl]acetyl}octahydropyrazino[2,1-c][1,4]oxazin-3-yl]benzonitrile] has an IC50 (Kir1.1 (ROMK1)) of 40 nM.
Work on Cc1c([C@@H]2CN3CCN(C(=O)Cc4cnc(-n5cnnn5)nc4)C[C@@H]3CO2)ccc(F)c1C#N [Example 13, 6-fluoro-2-methyl-3-[(3R,9aR)-8-{[2-(1H-tetrazol-1-yl)pyrimidin-5-yl]acetyl}octahydropyrazino[2,1-c][1,4]oxazin-3-yl]benzonitrile] yielded an IC50 (Kir1.1 (ROMK1)) of 30 nM and an IC50 (hROMK (hKir1.1); Thallium Flux IC50) of 110 nM.
Work on N#Cc1cc([C@@H]2CN3CCN(C(=O)Cc4ccc(-n5cnnn5)nc4)C[C@H]3CO2)ccc1F [Example 37, 2-fluoro-5-[(3R,9aS)-8-{[6-(1H-tetrazol-1-yl)pyridin-3-yl]acetyl}octahydropyrazino[2,1-c][1,4]oxazin-3-yl]benzonitrile] yielded an IC50 (Kir1.1 (ROMK1)) of 20 nM.
Work on N#Cc1cc([C@@H]2CN3CCN(C(=O)Cc4ccc(-n5cnnn5)cn4)C[C@H]3CO2)ccc1F [Example 38, 2-fluoro-5-[(3R,9aS)-8-{[5-(1H-tetrazol-1-yl)pyridin-2-yl]acetyl}octahydropyrazino[2,1-c][1,4]oxazin-3-yl]benzonitrile] yielded an IC50 (Kir1.1 (ROMK1)) of 120 nM.
COc1ccc([C@@H]2CN3CCN(C(=O)Cc4ccc(-n5cnnn5)nc4)C[C@H]3CO2)c(C)c1C#N [Example 50] was tested, and the IC50 (Kir1.1 (ROMK1)) was 130 nM and the IC50 (hROMK (hKir1.1); [1]) was 80 nM.
With COc1cc(F)c([C@@H]2CN3CCN(C(=O)Cc4ccc(-n5cnnn5)nc4)C[C@H]3CO2)cc1C#N [Example 57, 4-fluoro-2-methoxy-5-[(3R,9aS)-8-{[6-(1H-tetrazol-1-vl)pvridin-3-yl]acetyl}octahydropyrazino[2,1-c][1,4]oxazin-3-yl]benzonitrile] the IC50 (Kir1.1 (ROMK1)) was 190 nM and the IC50 (hROMK (hKir1.1); [1]) was 210 nM.
Work on COc1c([C@H]2CN3CCN(C(=O)Cc4ccc(-n5cnnn5)nc4)C[C@H]3CO2)ccc(F)c1C#N [Example 61, 6-fluoro-2-methoxy-3-[(3S,9aS)-8-{[6-(1H-tetrazol-1-vl)pvridin-3-yl]acetyl}octahydropyrazino[2,1-c][1,4]oxazin-3-yl]benzonitrile] yielded an IC50 (Kir1.1 (ROMK1)) of 70 nM and an IC50 (hROMK (hKir1.1); [1]) of 130 nM.
Cc1nc(-n2cnnn2)ncc1CC(=O)N1CCN2C[C@H](c3ccc(F)c(C#N)c3C)OC[C@@H]2C1 [Example 121, 6-fluoro-2-methyl-3-[(3S,9aS)-8-{[4-methyl-2-(1H-tetrazol-1-yl)pyrimidin-5-yl]acetyl}octahydropyrazino[2,1-c][1,4]oxazin-3-yl]benzonitrile] was tested, and the IC50 (Kir1.1 (ROMK1)) was 90 nM and the IC50 (hROMK (hKir1.1); Thallium Flux IC50) was 120 nM.
With Cc1c([C@@H]2CN3CCN(C(=O)Cc4ccc(-n5cnnn5)nc4)C[C@H]3CN2)ccc(F)c1C#N [Example 194, 6-fluoro-2-methyl-3-[(3R,9aR)-8-{[6-(1H-tetrazol-1-yl)pyridin-3-yl]acetyl}octahydro-2H-pyrazino[1,2-a]pyrazin-3-yl]benzonitrile] the IC50 (Kir1.1 (ROMK1)) was 60 nM and the IC50 (hROMK (hKir1.1); [1]) was 60 nM.
Work on C[C@@H]1Cc2cc([C@@H]3CN4CCN(C(=O)Cc5ccc(-n6cnnn6)nc5)C[C@H]4CN3)ccc2C(=O)O1 [Example 196, (3R)-3-methyl-6-[(3R,9aR)-8-{[6-(1H-tetrazol-1-yl)pyridin-3-yl]acetyl}octahydro-2H-pyrazino[1,2-a]pyrazin-3-yl]-3,4-dihydro-1H-isochromen-1-one] yielded an IC50 (hROMK (hKir1.1); [1]) of 230 nM.
N#Cc1cc([C@@H]2CN3CCN(C(=O)Cc4cnc(-n5cnnn5)nc4)C[C@H]3CN2)ccc1F [Example 197, 2-fluoro-5-[(3R,9aR)-8-{[2-(1H-tetrazol-1-yl)pyrimidin-5-yl]acetyl}octahydro-2H-pyrazino[1,2-a]pyrazin-3-yl]benzonitrile] showed an IC50 (hROMK (hKir1.1); [1]) of 240 nM.
Molecule Cc1c([C@@H]2CN3CCN(C(=O)Nc4ccc(-n5cnnn5)nc4)C[C@H]3CO2)ccc(F)c1C#N [Example 198, (3R,9aS)-3-(3-cyano-4-fluoro-2-methylphenyl)-N-[6-(1H-tetrazol-1-yl)pyridin-3-yl]hexahydropyrazino[2,1-c][1,4]oxazine-8(1H)-carboxamide] has an IC50 (hROMK (hKir1.1); [1]) of 160 nM.
Cc1c([C@@H]2CN3CCN(C(=O)Nc4ccc(-n5cnnn5)nc4)C[C@@H]3CO2)ccc(F)c1C#N [Example 199, (3R,9aR)-3-(3-cyano-4-fluoro-2-methylphenyl)-N-[6-(1H-tetrazol-1-yl)pyridin-3-yl]hexahydropyrazino[2,1-c][1,4]oxazine-8(1H)-carboxamide] was tested, and the IC50 (hROMK (hKir1.1); [1]) was 140 nM.
For Cc1c([C@@H]2CN3CCN(C(=O)Nc4ccc(-n5cnnn5)cn4)C[C@@H]3CO2)ccc(F)c1C#N [Example 200, (3R,9aR)-3-(3-cyano-4-fluoro-2-methylphenyl)-N-[5-(1H-tetrazol-1-yl)pyridin-2-yl]hexahydropyrazino[2,1-c][1,4]oxazine-8(1H)-carboxamide], the IC50 (hROMK (hKir1.1); [1]) was 250 nM.
Work on Cc1c([C@@H]2CN3CCN(C(=O)Nc4ccc(-n5cnnn5)cn4)C[C@H]3CO2)ccc(F)c1C#N [Example 201, (3R,9aS)-3-(3-cyano-4-fluoro-2-methylphenyl)-N-[5-(1H-tetrazol-1-yl)pyridin-2-yl]hexahydropyrazino[2,1-c][1,4]oxazine-8(1H)-carboxamide] yielded an IC50 (hROMK (hKir1.1); [1]) of 320 nM.

From patent EP2790511B1 (Merck Sharp & Dohme Corp., priority 2011, dated 2013)
